Data from patent US20020137929A1, “1 - (3-heterocyclylphenyl) isothiourea, -isourea, -guanidine and -amidine herbicidal agents” (Intellectual Property Department, BASF Aktiengesellschaft, priority 1998, published 2002).

Tests used:
ZEAMX (Corn, Field) = test: Postemergence herbicidal evaluation; format: in vivo, Zea mays; settings: postemergence
Summary of the method: (§1)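 Scores (0–9) reflect plant stand, vigor, malformation, size, chlorosis and general appearance relative to control, read 4 to 5 weeks after treatment and averaged where tests were repeated. Application: about 0.0156–0.500 kg/ha sprayed at 40 psi onto two-week seedlings.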

[1] = test system: GLXMAW (Soybean, Williams); test: Preemergence herbicidal evaluation; format: in vivo, Glycine max, (L.) Merr. cv Williams; settings: rated 4-5 weeks after treatment, rating scale 0-9
Summary of the method: (§2)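 Greenhouse preemergence test: seed-soil mix sown on ~1 inch soil; aqueous acetone spray at equivalent of ~0.0156–0.500 kg/ha; greenhouse-held and watered; scored 0–9 visually at 4–5 weeks.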

GALAP (Galium) = test: Postemergence herbicidal evaluation; format: in vivo, Galium aparine; settings: postemergence
Summary of the method: as §1

ORYSAT (Rice, Tebonnet) [2] = test: Preemergence herbicidal evaluation; format: in vivo, Oryza sativa, (L.) Tebonnet; settings: rated 4-5 weeks after treatment, rating scale 0-9
Summary of the method: as §2

CASOB (Sicklepod) = test: Postemergence herbicidal evaluation; format: in vivo, Cassia obtusifolia; settings: postemergence
Summary of the method: as §1

MOOVA (Monochoria) = test: Preemergence weed control under flooded paddy conditions; format: in vivo, Monochoria vaginalis; settings: rated 3-4 weeks after treatment
Summary of the method: (§3)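 Seeds or propagules sown in silt loam kept flooded 1.5-3 cm; compounds in 50/50 acetone/water pipetted into flood water at about 0.0313 to 0.500 kg/ha. Greenhouse; visual 0-9 rating versus untreated control 3-4 weeks after treatment.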

SETVI (Foxtail, Green) = test: Preemergence herbicidal evaluation; format: in vivo, Setaria viridis; settings: rated 4-5 weeks after treatment, rating scale 0-9
Summary of the method: as §2

[3] = test system: CHEAL (Lambsquarters, Common); test: Postemergence herbicidal evaluation; format: in vivo, Chenopodium album; settings: postemergence
Summary of the method: as §1

ORYSAT (Rice, Tebonnet) [4] = test: Postemergence herbicidal evaluation; format: in vivo, Oryza sativa, (L.) Tebonnet; settings: postemergence
Summary of the method: as §1

AMBEL (Ragweed, Common) = test: Preemergence herbicidal evaluation; format: in vivo, Ambrosia artemisifolia; settings: rated 4-5 weeks after treatment, rating scale 0-9
Summary of the method: as §2

CYPSE (Flatsedge) = test: Preemergence weed control under flooded paddy conditions; format: in vivo, Cyperus serotinus; settings: rated 3-4 weeks after treatment
Summary of the method: as §3

| Compound | herbicidal rating ZEAMX (ZEAMX (Corn, Field); rate 0.0156 kg/ha) | herbicidal rating ZEAMX (ZEAMX (Corn, Field); rate 0.0313 kg/ha) | herbicidal rating ZEAMX (ZEAMX (Corn, Field); rate 0.0625 kg/ha) | Preemergence herbicidal rating GLXMAW ([1]; rate 0.0313 kg/ha) | Preemergence herbicidal rating GLXMAW ([1]; rate 0.0625 kg/ha) | Preemergence herbicidal rating GLXMAW ([1]; rate 0.1250 kg/ha) | Preemergence herbicidal rating GLXMAW ([1]; rate 0.2500 kg/ha) | herbicidal rating GALAP (GALAP (Galium); rate 0.0156 kg/ha) | herbicidal rating GALAP (GALAP (Galium); rate 0.0313 kg/ha) | herbicidal rating GALAP (GALAP (Galium); rate 0.0625 kg/ha) | Preemergence herbicidal rating ORYSAT (ORYSAT (Rice, Tebonnet) [2]; rate 0.0313 kg/ha) | Preemergence herbicidal rating ORYSAT (ORYSAT (Rice, Tebonnet) [2]; rate 0.0625 kg/ha) | Preemergence herbicidal rating ORYSAT (ORYSAT (Rice, Tebonnet) [2]; rate 0.1250 kg/ha) | Preemergence herbicidal rating ORYSAT (ORYSAT (Rice, Tebonnet) [2]; rate 0.2500 kg/ha) | herbicidal rating CASOB (CASOB (Sicklepod); rate 0.0156 kg/ha) | herbicidal rating CASOB (CASOB (Sicklepod); rate 0.0313 kg/ha) | herbicidal rating CASOB (CASOB (Sicklepod); rate 0.0625 kg/ha) | herbicidal effect rating, MOOVA (MOOVA (Monochoria); 0.0625 kg/ha) | herbicidal effect rating, MOOVA (MOOVA (Monochoria); 0.1250 kg/ha) | herbicidal effect rating, MOOVA (MOOVA (Monochoria); 0.2500 kg/ha) | other results |
| --- | --- | --- | --- | --- | --- | --- | --- | --- | --- | --- | --- | --- | --- | --- | --- | --- | --- | --- | --- | --- | --- |
| Cn1c(C(F)(F)F)cc(=O)n(-c2cc(N=C3SCC(=O)N3Cc3ccc(Br)cc3)c(Cl)cc2F)c1=O [Compound 148, 3-{5-{[3-(p-Bromobenzyl)-4-oxo-2-thiazolidinyl-idene]amino}-4-chloro-2-fluorophenyl}-1-methyl-6-(trifluoromethyl)-2,4(1H,3H)-pyrimidinedione] | 4.0 | 4.0 | 5.0 | 0.0 | 0.0 | 0.0 | 0.0 | 2.0 | 2.0 | 2.0 | 0.0 | 0.0 | 0.0 | 0.0 | 3.0 | 3.0 | 3.0 | 7.0 | 9.0 | 9.0 | herbicidal effect rating, MOOVA (MOOVA (Monochoria); 0.0313 kg/ha): 7.0; Preemergence herbicidal rating SETVI (SETVI (Foxtail, Green); rate 0.0313 kg/ha): 1.0; Preemergence herbicidal rating SETVI (SETVI (Foxtail, Green); rate 0.0625 kg/ha): 0.0; Preemergence herbicidal rating SETVI (SETVI (Foxtail, Green); rate 0.1250 kg/ha): 0.0; Preemergence herbicidal rating SETVI (SETVI (Foxtail, Green); rate 0.2500 kg/ha): 5.0; herbicidal rating CHEAL ([3]; rate 0.0156 kg/ha): 4.0; herbicidal rating CHEAL ([3]; rate 0.0313 kg/ha): 7.0; herbicidal rating CHEAL ([3]; rate 0.0625 kg/ha): 7.0; herbicidal rating ORYSAT (ORYSAT (Rice, Tebonnet) [4]; rate 0.0156 kg/ha): 2.0; herbicidal rating ORYSAT (ORYSAT (Rice, Tebonnet) [4]; rate 0.0313 kg/ha): 3.0; herbicidal rating ORYSAT (ORYSAT (Rice, Tebonnet) [4]; rate 0.0625 kg/ha): 3.0; Preemergence herbicidal rating AMBEL (AMBEL (Ragweed, Common); rate 0.0313 kg/ha): 0.0; Preemergence herbicidal rating AMBEL (AMBEL (Ragweed, Common); rate 0.0625 kg/ha): 0.0; Preemergence herbicidal rating AMBEL (AMBEL (Ragweed, Common); rate 0.1250 kg/ha): 0.0; Preemergence herbicidal rating AMBEL (AMBEL (Ragweed, Common); rate 0.2500 kg/ha): 4.0; herbicidal effect rating, CYPSE (CYPSE (Flatsedge); 0.0313 kg/ha): 0.0; herbicidal effect rating, CYPSE (CYPSE (Flatsedge); 0.1250 kg/ha): 0.0; herbicidal effect rating, CYPSE (CYPSE (Flatsedge); 0.2500 kg/ha): 5.0 |
| Cn1c(C(F)(F)F)cc(=O)n(-c2cc(N=C3SCC(=O)N3C3CC3)c(Cl)cc2F)c1=O [Compound 152, 3-{4-Chloro-5-[(3-cyclopropyl-4-oxo-2-thiazolidinylidene)amino]-2-fluorophenyl}-1-methyl-6-(trifluoromethyl)-2,4(1H,3H)-pyrimidinedione] | 4.0 | 5.0 | 6.5 | 0.0 | 2.0 | 2.0 | 2.0 | 0.0 | 0.0 | 2.0 | 0.0 | 1.0 | 1.0 | 1.0 | 0.0 | 0.0 | 3.0 | 3.0 | 3.0 | 3.0 | Preemergence herbicidal rating SETVI (SETVI (Foxtail, Green); rate 0.0313 kg/ha): 0.0; Preemergence herbicidal rating SETVI (SETVI (Foxtail, Green); rate 0.0625 kg/ha): 1.0; Preemergence herbicidal rating SETVI (SETVI (Foxtail, Green); rate 0.1250 kg/ha): 1.0; Preemergence herbicidal rating SETVI (SETVI (Foxtail, Green); rate 0.2500 kg/ha): 9.0; herbicidal rating CHEAL ([3]; rate 0.0156 kg/ha): 0.0; herbicidal rating CHEAL ([3]; rate 0.0313 kg/ha): 4.0; herbicidal rating CHEAL ([3]; rate 0.0625 kg/ha): 9.0; herbicidal rating ORYSAT (ORYSAT (Rice, Tebonnet) [4]; rate 0.0156 kg/ha): 1.5; herbicidal rating ORYSAT (ORYSAT (Rice, Tebonnet) [4]; rate 0.0313 kg/ha): 2.0; herbicidal rating ORYSAT (ORYSAT (Rice, Tebonnet) [4]; rate 0.0625 kg/ha): 3.0; Preemergence herbicidal rating AMBEL (AMBEL (Ragweed, Common); rate 0.0313 kg/ha): 0.0; Preemergence herbicidal rating AMBEL (AMBEL (Ragweed, Common); rate 0.0625 kg/ha): 0.0; Preemergence herbicidal rating AMBEL (AMBEL (Ragweed, Common); rate 0.1250 kg/ha): 2.0; Preemergence herbicidal rating AMBEL (AMBEL (Ragweed, Common); rate 0.2500 kg/ha): 6.0; herbicidal effect rating, CYPSE (CYPSE (Flatsedge); 0.0625 kg/ha): 0.0; herbicidal effect rating, CYPSE (CYPSE (Flatsedge); 0.1250 kg/ha): 0.0; herbicidal effect rating, CYPSE (CYPSE (Flatsedge); 0.2500 kg/ha): 0.0 |
